Measured values taken from ChEMBL document CHEMBL1275492, “In vitro activity of ceftobiprole against pathogens from two phase 3 clinical trials of complicated skin and skin structure infections” (2008).
In brackets after ≈: the same amount, converted by molar mass.

Tests used:
Type in all cases: functional
[1] = tested on: Providencia stuartii; assay: Antibacterial activity against Providencia stuartii obtained from complicated skin and skin structure infections by agar dilution method
[2] = tested on: Pseudomonas fluorescens; assay: Antibacterial activity against Pseudomonas fluorescens obtained from complicated skin and skin structure infections by agar dilution method
[3] = tested on: Klebsiella oxytoca; assay: Antibacterial activity against Klebsiella oxytoca obtained from complicated skin and skin structure infections by agar dilution method
[4] = tested on: Citrobacter braakii; assay: Antibacterial activity against Citrobacter braakii obtained from complicated skin and skin structure infections by agar dilution method
[5] = tested on: Stenotrophomonas maltophilia; assay: Antibacterial activity against Stenotrophomonas maltophilia obtained from complicated skin and skin structure infections by agar dilution method
[6] = tested on: Acinetobacter baumannii; assay: Antibacterial activity against Acinetobacter baumannii obtained from complicated skin and skin structure infections by agar dilution method
[7] = tested on: Klebsiella aerogenes; assay: Antibacterial activity against Enterobacter aerogenes obtained from complicated skin and skin structure infections by agar dilution method
[8] = tested on: Proteus mirabilis; assay: Antibacterial activity against Proteus mirabilis obtained from complicated skin and skin structure infections by agar dilution method
[9] = tested on: Pseudomonas aeruginosa; assay: Antibacterial activity against Pseudomonas aeruginosa obtained from complicated skin and skin structure infections by agar dilution method
[10] = tested on: Enterobacter amnigenus; assay: Antibacterial activity against Enterobacter amnigenus obtained from complicated skin and skin structure infections by agar dilution method; conditions: Lelliottia amnigena
[11] = tested on: Escherichia coli; assay: Antibacterial activity against Escherichia coli obtained from complicated skin and skin structure infections by agar dilution method
[12] = tested on: Citrobacter freundii; assay: Antibacterial activity against Citrobacter freundii obtained from complicated skin and skin structure infections by agar dilution method
[13] = tested on: Salmonella; assay: Antibacterial activity against Salmonella spp. obtained from complicated skin and skin structure infections by agar dilution method
[14] = tested on: Serratia marcescens; assay: Antibacterial activity against Serratia marcescens obtained from complicated skin and skin structure infections by agar dilution method
[15] = tested on: Morganella morganii; assay: Antibacterial activity against Morganella morganii obtained from complicated skin and skin structure infections by agar dilution method
[16] = tested on: Proteus penneri; assay: Antibacterial activity against Proteus penneri obtained from complicated skin and skin structure infections by agar dilution method
[17] = tested on: Proteus vulgaris; assay: Antibacterial activity against Proteus vulgaris obtained from complicated skin and skin structure infections by agar dilution method
[18] = tested on: Enterobacter cloacae; assay: Antibacterial activity against Enterobacter cloacae obtained from complicated skin and skin structure infections by agar dilution method
[19] = tested on: Klebsiella pneumoniae; assay: Antibacterial activity against Klebsiella pneumoniae obtained from complicated skin and skin structure infections by agar dilution method
[20] = tested on: Staphylococcus cohnii; assay: Antibacterial activity against coagulase-negative Staphylococcus cohnii obtained from complicated skin and skin structure infections by agar dilution method
[21] = tested on: Gemella morbillorum; assay: Antibacterial activity against Gemella morbillorum obtained from complicated skin and skin structure infections […]
[22] = tested on: Lactococcus lactis; assay: Antibacterial activity against Lactococcus lactis obtained from complicated skin and skin structure infections by agar dilution method
[23] = tested on: Gemella; assay: Antibacterial activity against Gemella spp. obtained from complicated skin and skin structure infections by agar dilution method
[24] = tested on: Staphylococcus capitis; assay: Antibacterial activity against coagulase-negative Staphylococcus capitis obtained from complicated skin and skin structure infections by agar dilution method
[25] = tested on: Staphylococcus lugdunensis; assay: Antibacterial activity against methicillin-resistant, oxacillin-susceptible, coagulase-negative, mecA-positive Staphylococcus lugdunensis obtained from complicated skin and skin structure infections by agar dilution method
[26] = tested on: Micrococcus; assay: Antibacterial activity against Micrococcus spp. obtained from complicated skin and skin structure infections by agar dilution method
[27] = tested on: Streptococcus constellatus; assay: Antibacterial activity against Streptococcus constellatus obtained from complicated skin and skin structure infections by agar dilution method
[28] = tested on: Staphylococcus; assay: Antibacterial activity against methicillin-susceptible, coagulase-negative Staphylococcus obtained from complicated skin and skin structure infections by agar dilution method
[29] = tested on: Staphylococcus intermedius; assay: Antibacterial activity against Staphylococcus intermedius obtained from complicated skin and skin structure infections by agar dilution method
[30] = tested on: Mammaliicoccus sciuri; assay: Antibacterial activity against coagulase-negative Staphylococcus sciuri obtained from complicated skin and skin structure infections by agar dilution method
[31] = tested on: Staphylococcus haemolyticus; assay: Antibacterial activity against coagulase-negative Staphylococcus haemolyticus obtained from complicated skin and skin structure infections by agar dilution method
[32] = tested on: Streptococcus mitis; assay: Antibacterial activity against Streptococcus mitis obtained from complicated skin and skin structure infections by agar dilution method
[33] = tested on: Staphylococcus lugdunensis; assay: Antibacterial activity against coagulase-negative Staphylococcus lugdunensis obtained from complicated skin and skin structure infections by agar dilution method
[34] = tested on: Staphylococcus epidermidis; assay: Antibacterial activity against coagulase-negative Staphylococcus epidermidis obtained from complicated skin and skin structure infections by agar dilution method
[35] = tested on: Staphylococcus saprophyticus; assay: Antibacterial activity against coagulase-negative Staphylococcus saprophyticus obtained from complicated skin and skin structure infections by agar dilution method
[36] = tested on: Bacillus; assay: Antibacterial activity against Bacillus spp. obtained from complicated skin and skin structure infections by agar dilution method
[37] = tested on: Staphylococcus warneri; assay: Antibacterial activity against coagulase-negative Staphylococcus warneri obtained from complicated skin and skin structure infections by agar dilution method
[38] = tested on: Staphylococcus aureus; assay: Antibacterial activity against Staphylococcus aureus obtained from complicated skin and skin structure infections by agar dilution method
[39] = tested on: Aerococcus viridans; assay: Antibacterial activity against Aerococcus viridans obtained from complicated skin and skin structure infections by agar dilution method
[40] = tested on: Staphylococcus hominis; assay: Antibacterial activity against coagulase-negative Staphylococcus hominis obtained from complicated skin and skin structure infections by agar dilution method
[41] = tested on: Staphylococcus aureus; assay: Antibacterial activity against methicillin susceptible Staphylococcus aureus obtained from complicated skin and skin structure infections by agar dilution method
[42] = tested on: Staphylococcus aureus; assay: Antibacterial activity against methicillin resistant Staphylococcus aureus obtained from complicated skin and skin structure infections by agar dilution method

O=C(O)c1cn(C2CC2)c2cc(N3CCNCC3)c(F)cc2c1=O [CIPROFLOXACIN]
MIC50 [1]: 0.015 µg/mL (≈ 0.0453 µM) | MIC90 [1]: > 2 µg/mL | MIC50 [2]: > 2 µg/mL | MIC90 [2]: > 8 µg/mL | MIC50 [3]: 0.015 µg/mL (≈ 0.0453 µM) | MIC90 [3]: > 2 µg/mL | MIC50 [4]: 0.015 µg/mL (≈ 0.0453 µM) | MIC90 [4]: > 2 µg/mL | MIC50 [5]: > 2 µg/mL | MIC90 [5]: > 8 µg/mL | MIC50 [6]: > 2 µg/mL | MIC90 [6]: > 8 µg/mL | MIC50 [7]: 0.015 µg/mL (≈ 0.0453 µM) | MIC90 [7]: > 2 µg/mL | MIC50 [8]: 0.03 µg/mL (≈ 0.0905 µM) | MIC90 [8]: > 2 µg/mL | MIC50 [9]: 1 µg/mL (≈ 3.02 µM) | MIC90 [9]: > 8 µg/mL | MIC50 [10]: 0.015 µg/mL (≈ 0.0453 µM) | MIC90 [10]: > 2 µg/mL | MIC50 [11]: 0.015 µg/mL (≈ 0.0453 µM) | MIC90 [11]: 1 µg/mL (≈ 3.02 µM) | MIC50 [12]: 0.015 µg/mL (≈ 0.0453 µM) | MIC90 [12]: > 2 µg/mL | MIC50 [13]: 0.015 µg/mL (≈ 0.0453 µM) | MIC90 [13]: > 2 µg/mL | MIC50 [14]: 0.015 µg/mL (≈ 0.0453 µM) | MIC90 [14]: > 2 µg/mL | MIC50 [15]: 0.12 µg/mL (≈ 0.362 µM) | MIC90 [15]: > 8 µg/mL | MIC50 [16]: 0.015 µg/mL (≈ 0.0453 µM) | MIC90 [16]: > 2 µg/mL | MIC50 [17]: 0.015 µg/mL (≈ 0.0453 µM) | MIC90 [17]: > 2 µg/mL

C[C@@H](O)[C@H]1C(=O)N2C(C(=O)O)=C(S[C@@H]3CN[C@H](C(=O)N(C)C)C3)[C@H](C)[C@H]12 [MEROPENEM]
MIC50 [1]: 0.03 µg/mL (≈ 0.0782 µM) | MIC90 [1]: ≤ 0.12 µg/mL | MIC50 [2]: 2 µg/mL (≈ 5.22 µM) | MIC90 [2]: > 32 µg/mL | MIC50 [3]: 0.03 µg/mL (≈ 0.0782 µM) | MIC90 [3]: ≤ 0.12 µg/mL | MIC50 [4]: 0.03 µg/mL (≈ 0.0782 µM) | MIC90 [4]: ≤ 0.12 µg/mL | MIC50 [18]: 0.03 µg/mL (≈ 0.0782 µM) | MIC90 [18]: ≤ 0.12 µg/mL | MIC50 [5]: 2 µg/mL (≈ 5.22 µM) | MIC90 [5]: > 32 µg/mL | MIC50 [6]: 2 µg/mL (≈ 5.22 µM) | MIC90 [6]: > 32 µg/mL | MIC50 [7]: 0.03 µg/mL (≈ 0.0782 µM) | MIC90 [7]: ≤ 0.12 µg/mL | MIC50 [8]: 0.06 µg/mL (≈ 0.156 µM) | MIC90 [8]: ≤ 0.12 µg/mL | MIC50 [9]: 4 µg/mL (≈ 10.4 µM) | MIC90 [9]: 8 µg/mL (≈ 20.9 µM) | MIC50 [10]: 0.03 µg/mL (≈ 0.0782 µM) | MIC90 [10]: ≤ 0.12 µg/mL | MIC [11]: 0.015 µg/mL (≈ 0.0391 µM) | MIC50 [11]: 0.015 µg/mL (≈ 0.0391 µM) | MIC90 [11]: ≤ 0.12 µg/mL | MIC50 [19]: 0.03 µg/mL (≈ 0.0782 µM) | MIC90 [19]: ≤ 0.12 µg/mL | MIC50 [12]: 0.03 µg/mL (≈ 0.0782 µM) | MIC90 [12]: ≤ 0.12 µg/mL | MIC50 [13]: 0.03 µg/mL (≈ 0.0782 µM) | MIC90 [13]: ≤ 0.12 µg/mL | MIC50 [14]: 0.03 µg/mL (≈ 0.0782 µM) | MIC90 [14]: ≤ 0.12 µg/mL | MIC50 [15]: ≤ 0.12 µg/mL | MIC90 [15]: 0.12 µg/mL (≈ 0.313 µM) | MIC50 [16]: 0.03 µg/mL (≈ 0.0782 µM) | MIC90 [16]: ≤ 0.12 µg/mL | MIC50 [17]: 0.03 µg/mL (≈ 0.0782 µM) | MIC90 [17]: ≤ 0.12 µg/mL

Cc1onc(-c2ccccc2)c1C(=O)N[C@@H]1C(=O)N2[C@@H]1SC(C)(C)[C@@H]2C(=O)O [OXACILLIN]
MIC50 [20]: 0.5 µg/mL (≈ 1.25 µM) | MIC90 [20]: > 8 µg/mL | MIC50 [21]: 0.25 µg/mL (≈ 0.623 µM) | MIC90 [21]: > 8 µg/mL | MIC50 [22]: 0.25 µg/mL (≈ 0.623 µM) | MIC90 [22]: > 8 µg/mL | MIC50 [23]: 0.25 µg/mL (≈ 0.623 µM) | MIC90 [23]: > 8 µg/mL | MIC50 [24]: 0.5 µg/mL (≈ 1.25 µM) | MIC90 [24]: > 8 µg/mL | MIC50 [25]: 4 µg/mL (≈ 9.96 µM) | MIC90 [25]: 32 µg/mL (≈ 79.7 µM) | MIC50 [26]: 0.25 µg/mL (≈ 0.623 µM) | MIC90 [26]: > 8 µg/mL | MIC50 [27]: 0.12 µg/mL (≈ 0.299 µM) | MIC90 [27]: 0.25 µg/mL (≈ 0.623 µM) | MIC50 [28]: 0.12 µg/mL (≈ 0.299 µM) | MIC90 [28]: 0.25 µg/mL (≈ 0.623 µM) | MIC [29]: 0.25 µg/mL (≈ 0.623 µM) | MIC50 [29]: 0.25 µg/mL (≈ 0.623 µM) | MIC90 [29]: 1 µg/mL (≈ 2.49 µM) | MIC50 [30]: 0.5 µg/mL (≈ 1.25 µM) | MIC90 [30]: > 8 µg/mL | MIC50 [31]: 0.5 µg/mL (≈ 1.25 µM) | MIC90 [31]: > 8 µg/mL | MIC [32]: 0.25 µg/mL (≈ 0.623 µM) | MIC50 [32]: 0.25 µg/mL (≈ 0.623 µM) | MIC90 [32]: 1 µg/mL (≈ 2.49 µM) | MIC50 [33]: 0.5 µg/mL (≈ 1.25 µM) | MIC90 [33]: > 8 µg/mL | MIC50 [34]: 0.5 µg/mL (≈ 1.25 µM) | MIC90 [34]: > 8 µg/mL | MIC50 [35]: 0.5 µg/mL (≈ 1.25 µM) | MIC90 [35]: > 8 µg/mL | MIC50 [36]: 0.25 µg/mL (≈ 0.623 µM) | MIC90 [36]: > 8 µg/mL | MIC50 [37]: 0.5 µg/mL (≈ 1.25 µM) | MIC90 [37]: > 8 µg/mL | MIC50 [38]: 0.5 µg/mL (≈ 1.25 µM) | MIC90 [38]: 32 µg/mL (≈ 79.7 µM) | MIC50 [39]: 0.25 µg/mL (≈ 0.623 µM) | MIC90 [39]: > 8 µg/mL | MIC50 [40]: 0.5 µg/mL (≈ 1.25 µM) | MIC90 [40]: > 8 µg/mL | MIC50 [41]: 0.25 µg/mL (≈ 0.623 µM) | MIC90 [41]: 0.5 µg/mL (≈ 1.25 µM) | MIC50 [42]: 16 µg/mL (≈ 39.9 µM) | MIC90 [42]: > 32 µg/mL

GENTAMICIN
MIC50 [9]: 4 µg/mL | MIC90 [9]: > 16 µg/mL
